In brackets after ≈: the same amount, converted by molar mass.
What was measured:
[1] = system: General Wild Strain Bacteria (Pseudomonas aeruginosa and Enterobacter aggolomerans); experiment: Microtiter MIC study, general aerobic bacteria; type: cell-based
Experimental: (§1) All three different heat incubated GDA samples were tested as antimicrobial agents with several different industrially relevant bacteria. The General Aerobic Bacteria isolated and used for this testing were identified as Pseudomonas aeruginosa and Enterobacter aggolomerans. Wild strain Sulfate Reducing Bacteria and Acid Producing Bacteria isolated from the produced fluids was also used. They were placed in a microtiter plate, where a high throughput test can be performed to determine MIC (minimum inhibitor concentration). Samples were tested at the following doses (1000, 500, 250, 125, 62.5, 31.2, 15.6, 7.8, 3.9, and 1.95 ppm) and concentration was calculated based on the initial GDA concentration (15 w/v %).
(§2) The antimicrobial testing results shown in FIG. 13 summarizes the MIC of each sample for different bacteria. The MIC is determined after 24 hours of incubation for the bacterial plates.

[2] = system: SRB (Sulfate Reducing Bacteria); experiment: Microtiter MIC study, sulfate reducing bacteria; type: cell-based, Wild strain Sulfate Reducing Bacteria; conditions: 24 hours incubation; concentration based on initial GDA concentration (15 w/v %)
Experimental: as §1, §2

[3] = system: APB (Acid Producing Bacteria); experiment: Microtiter MIC study, acid producing bacteria; type: cell-based; conditions: 24 hours incubation; concentration based on initial GDA concentration (15 w/v %)
Experimental: as §1, §2

Row | Structure (SMILES) | antimicrobial activity ([1]; inferred from Sample C result, all three bacteria tested) | MIC ([1]; Pseudomonas aeruginosa, 24 hours incubation, concentration based on initial GDA concentration (15 w/v %)) | MIC, SRB (Sulfate Reducing Bacteria) [2] | MIC [3]
1 | Oc1ccc(O)c(O)c1O (single isomer, unassigned) [1,2,3,4-tetrahydroxybenzene] | good antimicrobial activity |  |  | 
2 | O=CCCCC=O [Glutaraldehyde - 50%, Glutaraldehyde] |  | 1000 µg/mL (≈ 9.99 mM) | 500 ppm | 500 µg/mL (≈ 4.99 mM)

Reference: US20250011265A1, “COMPOSITIONS AND METHODS FOR PRODUCTION OF ANTIMICROBIAL AGENTS FROM BIO-RENEWABLE FEEDSTOCKS” (SOLUGEN, INC., priority 2022, published 2025)
